Measurements from patent publication US9676777B2, “Compounds useful for producing an optically active diazabicyclooctane compound” (Meiji Seika Pharma Co., Ltd., priority 2010, dated 2017).

Assays:
AmpC = AmpC (Pseudomonas aeruginosa (strain ATCC 15692 / DSM 22644 / CIP 104116 / JCM 14847 / LMG 12228 / 1C / PRS 101 / PAO1), UniProt P24735); type: biochemical; settings: result in words
Experimental: The biological activity of the above-mentioned compounds represented by formulae (H) and (s) can be measured as follows. […] Further, using constitutive AmpC producing Pseudomonas aeruginosa, a combined antimicrobial activity (MIC) was measured when using Piperacillin (PIPC) as an antibiotic and the compound of formula (H) or (s) in combination to check whether or not the antimicrobial activity of PIPC could be restored.
Using P. aeruginosa PAO1 genome as a template, a DNA for encoding an AmpC β-lactamase domain excluding a signal peptide was amplified with PCR. This PCR product was incorporated into pET-28b(+)vector (Merck), introduced into E. coli BL21 (Merck), and, under induction of 1 mM isopropyl-β-D-(−)-thiogalactopyranoside (Nacalai Tesque), cultured overnight at 20° C. to express AmpC. After the bacterial cell was collected, AmpC was purified from the cell extract obtained by ultrasonic treatment, using CM Sepharose Fast Flow (GE Healthcare) and HiTrap Heparin HP (GE Healthcare) at 4° C.

[1] = system: P. aeruginosa PAO1 variant, which constitutively expresses AmpC; test: Combinatorial antibacterial activity (MIC of PIPC) in combination with test compound, agar plate dilution; type: cell-based, Pseudomonas aeruginosa; settings: for MIC: Pseudomonas aeruginosa, PAO1; for effect of the compound in combination with an antibiotic: result in words
Experimental: The biological activity of the above-mentioned compounds represented by formulae (H) and (s) can be measured as follows. Specifically, an enzyme inhibitory activity (IC50 value) against AmpC enzyme which is a class C β-lactamase was determined using nitrocephin as a substrate to check whether or not the compounds had the inhibitory activity and compare the activities of them. Further, using constitutive AmpC producing Pseudomonas aeruginosa, a combined antimicrobial activity (MIC) was measured when using Piperacillin (PIPC) as an antibiotic and the compound of formula (H) or (s) in combination to check whether or not the antimicrobial activity of PIPC could be restored.
The combinatorial effect of the test compound with a β-lactam agent against bacteria was evaluated using AmpC constitutive expression strain selected from P. aeruginosa PAO1 through agent exposure. Using piperacillin (PIPC, Sigma-Aldrich) as a β-lactam agent, measurement was conducted by agar plate dilution process in which minimal inhibitory concentration (MIC) of PIPC is based on Clinical and Laboratory Standards Institute (CLSI process). That is, an agara plate containing 4 μg/mL (final concentration) of test compound and PIPC at each concentration in Mueller-Hinton agar (Becton, Dickinson and Company) was made, and bacteria cultured overnight in cation-adjusted Muller-Hinton broth (Becton, Dickinson and Company) were adjusted in the same medium so as to have 10^4 CFU/spot and inoculated on a plate containing an agent. This plate containing an agent was cultured overnight at 35° C., and the minimum agent concentration in which no growth of bacteria is observed was determined to be MIC.

Sequence of AmpC (P24735 27-397): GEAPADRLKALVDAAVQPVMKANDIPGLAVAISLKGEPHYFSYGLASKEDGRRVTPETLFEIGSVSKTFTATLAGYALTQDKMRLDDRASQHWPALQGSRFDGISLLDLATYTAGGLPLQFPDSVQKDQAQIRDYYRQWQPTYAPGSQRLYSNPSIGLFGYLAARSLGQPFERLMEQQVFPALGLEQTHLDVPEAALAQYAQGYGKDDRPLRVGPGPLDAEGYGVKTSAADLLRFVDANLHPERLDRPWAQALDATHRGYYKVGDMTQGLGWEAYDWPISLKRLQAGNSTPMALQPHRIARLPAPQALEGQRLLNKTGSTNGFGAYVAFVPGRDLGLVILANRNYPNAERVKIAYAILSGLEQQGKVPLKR

NC(=O)[C@@H]1CC[C@@H]2CN1C(=O)N2OS(=O)(=O)[O-].[Na+] [Example 23, (2S,5R)-1,6-Diazabicyclo[3.2.1]octane-2-carboxamide, 7-oxo-6-(sulfoxy)-monosodium salt]
β-lactamase enzyme inhibitory activity (AmpC): exhibited the activities
MIC [1]: 4 µg/mL
effect of the compound in combination with an antibiotic [1]: exhibited the activities

NC(=O)[C@H]1CC[C@H]2CN1C(=O)N2OS(=O)(=O)[O-].[Na+] [Example 24, (2R,5S)-1,6-Diazabicyclo[3.2.1]octane-2-carboxamide, 7-oxo-6-(sulfoxy)-monosodium salt]
β-lactamase enzyme inhibitory activity (AmpC): exhibited no activity
MIC [1]: 64 µg/mL
effect of the compound in combination with an antibiotic [1]: exhibited no activity

C[C@]1(Cn2ccnn2)[C@H](C(=O)[O-])N2C(=O)C[C@H]2S1(=O)=O.[Na+] [TAZ, Tazobactam, reference compound]
MIC [1]: 64 µg/mL
